The values below are quoted from earlier work in article PMC3433420 (PLoS ONE, 2012).

Like-named read-outs stand apart in the source and are kept apart here.

The series has as its target SH2 and PTB domains. The settings on record: cited from earlier work. An excerpt:
Supplement pone.0044471.s022.xlsx, sheet "Most recent PM interactions" | column: Kd || Supplement pone.0044471.s022.xlsx, sheet "All original PM interactions" | column: Kd

“PGGDpYAAMGACPd [ErbB3 pY1276, N-terminally rhodamine-labeled 13-mer phosphopeptide]”: the Kd (Protein ABL1, original PM interactions, ref Jones et al. 2006 / Kaushansky et al. Chem and Biol 2008) was 2000 nM; the dissociation constant Kd (Protein BCAR3, original PM interactions, ref Jones et al. 2006 / Kaushansky et al. Chem and Biol 2008) was 2000 nM; the Kd (Protein CRKL, original PM interactions, ref Jones et al. 2006 / Kaushansky et al. Chem and Biol 2008) is 440 nM; the Kd (Protein PIK3R3-C, original PM interactions, ref Jones et al. 2006 / Kaushansky et al. Chem and Biol 2008) is 500 nM; the Kd (Protein PIK3R3-N, original PM interactions, ref Jones et al. 2006 / Kaushansky et al. Chem and Biol 2008) was 500 nM; the Kd (Protein PTK6, original PM interactions, ref Jones et al. 2006 / Kaushansky et al. Chem and Biol 2008) is 440 nM. Also, the Kd reads like this: (Protein SH2B2, original PM interactions, ref Jones et al. 2006 / Kaushansky et al. Chem and Biol 2008) 2000 nM; (Protein SHC1, original PM interactions, ref Jones et al. 2006 / Kaushansky et al. Chem and Biol 2008) 600 nM; (Protein SLA2, original PM interactions, ref Jones et al. 2006 / Kaushansky et al. Chem and Biol 2008) 2000 nM; (Protein SLA, original PM interactions, ref Jones et al. 2006 / Kaushansky et al. Chem and Biol 2008) 2000 nM; (Protein SYK-NC, original PM interactions, ref Jones et al. 2006 / Kaushansky et al. Chem and Biol 2008) 600 nM; (Protein TENC1, original PM interactions, ref Jones et al. 2006 / Kaushansky et al. Chem and Biol 2008) 2000 nM. Moreover, the Kd was 2000 nM (Protein VAV1, original PM interactions, ref Jones et al. 2006 / Kaushansky et al. Chem and Biol 2008); 150 nM (protein ABL2, ref Jones et al. 2006 / Kaushansky et al. Chem and Biol 2008); 260 nM (protein CRK, ref Jones et al. 2006 / Kaushansky et al. Chem and Biol 2008); 440 nM (protein CRKL, ref Jones et al. 2006 / Kaushansky et al. Chem and Biol 2008); 580 nM (protein HCK, ref Jones et al. 2006 / Kaushansky et al. Chem and Biol 2008); 210 nM (protein NCK1, ref Jones et al. 2006 / Kaushansky et al. Chem and Biol 2008). Also, the Kd by setting is: (protein NCK2, ref Jones et al. 2006 / Kaushansky et al. Chem and Biol 2008) 550 nM; (protein PIK3R1-N, ref Jones et al. 2006 / Kaushansky et al. Chem and Biol 2008) 530 nM; (protein PIK3R1-NC, ref Jones et al. 2006 / Kaushansky et al. Chem and Biol 2008) 55 nM; (protein PIK3R2-C, ref Jones et al. 2006 / Kaushansky et al. Chem and Biol 2008) 930 nM; (protein PIK3R2-N, ref Jones et al. 2006 / Kaushansky et al. Chem and Biol 2008) 120 nM; (protein PIK3R2-NC, ref Jones et al. 2006 / Kaushansky et al. Chem and Biol 2008) 80 nM. The Kd reads like this: (protein PIK3R3-C, ref Jones et al. 2006 / Kaushansky et al. Chem and Biol 2008) 500 nM; (protein PIK3R3-N, ref Jones et al. 2006 / Kaushansky et al. Chem and Biol 2008) 500 nM; (protein PIK3R3-NC, ref Jones et al. 2006 / Kaushansky et al. Chem and Biol 2008) 14 nM; (protein PLCG1-C, ref Jones et al. 2006 / Kaushansky et al. Chem and Biol 2008) 690 nM; (protein PLCG1-NC, ref Jones et al. 2006 / Kaushansky et al. Chem and Biol 2008) 720 nM; (protein PTK6, ref Jones et al. 2006 / Kaushansky et al. Chem and Biol 2008) 440 nM. Moreover, the Kd is 910 nM (protein RASA1-N, ref Jones et al. 2006 / Kaushansky et al. Chem and Biol 2008); 600 nM (protein SHC1, ref Jones et al. 2006 / Kaushansky et al. Chem and Biol 2008); 640 nM (protein SHC3, ref Jones et al. 2006 / Kaushansky et al. Chem and Biol 2008); 600 nM (protein SYK-NC, ref Jones et al. 2006 / Kaushansky et al. Chem and Biol 2008); 1670 nM (protein TXK, ref Jones et al. 2006 / Kaushansky et al. Chem and Biol 2008); 300 nM (protein VAV2, ref Jones et al. 2006 / Kaushansky et al. Chem and Biol 2008). Further, the Kd (protein VAV3, ref Jones et al. 2006 / Kaushansky et al. Chem and Biol 2008) was 1540 nM; the Kd (protein ZAP70-C, ref Jones et al. 2006 / Kaushansky et al. Chem and Biol 2008) is 1440 nM.

Turning to QSLLSPSSGpYMPMNQGN [ErbB3 1054], the Kd was 330 nM (Protein ABL2, most recent PM interactions, ref Jones et al. 2006 / Kaushansky et al. Chem and Biol 2008); 1670 nM (Protein ITK, most recent PM interactions, ref Jones et al. 2006 / Kaushansky et al. Chem and Biol 2008); 1000 nM (Protein PIK3R1-C, most recent PM interactions, ref Jones et al. 2006 / Kaushansky et al. Chem and Biol 2008); 570 nM (Protein PIK3R1-N, most recent PM interactions, ref Jones et al. 2006 / Kaushansky et al. Chem and Biol 2008); 920 nM (Protein PIK3R1-NC, most recent PM interactions, ref Jones et al. 2006 / Kaushansky et al. Chem and Biol 2008); 890 nM (Protein PIK3R2-N, most recent PM interactions, ref Jones et al. 2006 / Kaushansky et al. Chem and Biol 2008). The Kd is 90 nM (Protein PIK3R2-NC, most recent PM interactions, ref Jones et al. 2006 / Kaushansky et al. Chem and Biol 2008); 110 nM (Protein PIK3R3-C, most recent PM interactions, ref Jones et al. 2006 / Kaushansky et al. Chem and Biol 2008); 1320 nM (Protein PIK3R3-N, most recent PM interactions, ref Jones et al. 2006 / Kaushansky et al. Chem and Biol 2008); 490 nM (Protein PIK3R3-NC, most recent PM interactions, ref Jones et al. 2006 / Kaushansky et al. Chem and Biol 2008); 1370 nM (Protein SHB, most recent PM interactions, ref Jones et al. 2006 / Kaushansky et al. Chem and Biol 2008); 1230 nM (Protein SHF, most recent PM interactions, ref Jones et al. 2006 / Kaushansky et al. Chem and Biol 2008). In addition, the Kd (Protein SYK-C, most recent PM interactions, ref Jones et al. 2006 / Kaushansky et al. Chem and Biol 2008) is 1180 nM.

In the case of HSTAVGNPEpYLNTVQPTd [ErbB1 1138], the Kd was 120 nM (Protein ABL2, most recent PM interactions, ref Jones et al. 2006 / Kaushansky et al. Mol Biosys 2008 / Kaushansky et al. Chem and Biol 2008); 420 nM (Protein GRB2, most recent PM interactions, ref Jones et al. 2006 / Kaushansky et al. Mol Biosys 2008 / Kaushansky et al. Chem and Biol 2008); 1760 nM (Protein ITK, most recent PM interactions, ref Jones et al. 2006 / Kaushansky et al. Mol Biosys 2008 / Kaushansky et al. Chem and Biol 2008); 330 nM (Protein NCK2, most recent PM interactions, ref Jones et al. 2006 / Kaushansky et al. Mol Biosys 2008 / Kaushansky et al. Chem and Biol 2008); 1570 nM (Protein PIK3R1-NC, most recent PM interactions, ref Jones et al. 2006 / Kaushansky et al. Mol Biosys 2008 / Kaushansky et al. Chem and Biol 2008); 760 nM (Protein PIK3R2-N, most recent PM interactions, ref Jones et al. 2006 / Kaushansky et al. Mol Biosys 2008 / Kaushansky et al. Chem and Biol 2008). In addition, the Kd runs as follows: (Protein PIK3R2-NC, most recent PM interactions, ref Jones et al. 2006 / Kaushansky et al. Mol Biosys 2008 / Kaushansky et al. Chem and Biol 2008) 860 nM; (Protein PIK3R3-N, most recent PM interactions, ref Jones et al. 2006 / Kaushansky et al. Mol Biosys 2008 / Kaushansky et al. Chem and Biol 2008) 840 nM; (Protein PIK3R3-NC, most recent PM interactions, ref Jones et al. 2006 / Kaushansky et al. Mol Biosys 2008 / Kaushansky et al. Chem and Biol 2008) 1690 nM; (Protein RASA1-N, most recent PM interactions, ref Jones et al. 2006 / Kaushansky et al. Mol Biosys 2008 / Kaushansky et al. Chem and Biol 2008) 390 nM; (Protein SHC1-PTB, most recent PM interactions, ref Jones et al. 2006 / Kaushansky et al. Mol Biosys 2008 / Kaushansky et al. Chem and Biol 2008) 170 nM; (Protein VAV2, most recent PM interactions, ref Jones et al. 2006 / Kaushansky et al. Mol Biosys 2008 / Kaushansky et al. Chem and Biol 2008) 370 nM. For the same substance, the Kd (Protein ZAP70-NC, most recent PM interactions, ref Jones et al. 2006 / Kaushansky et al. Mol Biosys 2008 / Kaushansky et al. Chem and Biol 2008) was 1140 nM.

For the substance “DETEpYHADGGKVd [ErbB2 pY877, N-terminally rhodamine-labeled 13-mer phosphopeptide]”, the Kd (protein BLK, ref Kaushansky et al. Chem and Biol 2008) was 720 nM; the equilibrium dissociation constant (Kd) (protein PLCG2-N, ref Kaushansky et al. Chem and Biol 2008) is 650 nM; the Kd (protein PLCG2-NC, ref Kaushansky et al. Chem and Biol 2008) is 1100 nM; the dissociation constant Kd (protein RASA1-NC, ref Kaushansky et al. Chem and Biol 2008) is 1400 nM; the dissociation constant (Kd) (protein YES1, ref Kaushansky et al. Chem and Biol 2008) was 1890 nM.
